The source made the active and inactive calls.
Tests used:
Format in all cases: functional
[1] = biological target: Serine/threonine-protein kinase TAO1 (Homo sapiens, UniProt Q7L7X3)
[2] = biological target: Cyclin-dependent kinase 19 (Homo sapiens, UniProt Q9BWU1); assay: Navigating the Kinome. Panel member name: CDC2L6
[3] = biological target: STE20-like serine/threonine-protein kinase (Homo sapiens, UniProt Q9H2G2)
[4] = biological target: Lymphokine-activated killer T-cell-originated protein kinase (Homo sapiens, UniProt Q96KB5);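 note: value comes from a kinase panel screen in which TOPK was one of the panel members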
[5] = biological target: Mitogen-activated protein kinase kinase kinase kinase 4 (Homo sapiens, UniProt O95819)
[6] = biological target: Phosphorylase b kinase gamma catalytic chain, liver/testis isoform (Homo sapiens, UniProt P15735);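 note: PHKG2 measured as one member of a kinome-wide kinase panel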
[7] = biological target: Serine/threonine-protein kinase D3 (Homo sapiens, UniProt O94806);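 note: determined within a kinase panel screen, with PRKCN as the panel member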
[8] = biological target: T1, Interleukin-1 receptor-associated kinase 4 (Homo sapiens, UniProt Q9NWZ3)
T1 sequence (Q9NWZ3 whole entry): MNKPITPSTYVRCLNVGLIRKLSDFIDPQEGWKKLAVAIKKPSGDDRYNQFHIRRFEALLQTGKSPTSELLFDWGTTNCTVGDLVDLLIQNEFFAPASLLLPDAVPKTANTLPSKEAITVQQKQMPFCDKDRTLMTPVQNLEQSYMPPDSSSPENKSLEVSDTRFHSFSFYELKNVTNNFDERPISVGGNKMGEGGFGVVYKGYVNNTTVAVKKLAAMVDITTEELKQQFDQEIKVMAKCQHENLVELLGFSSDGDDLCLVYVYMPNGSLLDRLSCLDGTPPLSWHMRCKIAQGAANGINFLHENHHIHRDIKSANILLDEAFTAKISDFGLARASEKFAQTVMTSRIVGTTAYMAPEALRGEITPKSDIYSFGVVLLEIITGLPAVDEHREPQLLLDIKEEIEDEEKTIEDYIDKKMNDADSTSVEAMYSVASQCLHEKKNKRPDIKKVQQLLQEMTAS

[9] = biological target: Serine/threonine-protein kinase pim-2 (Homo sapiens, UniProt Q9P1W9);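 note: value comes from a broad kinase panel profiling study in which PIM2 was one of the panel members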
[10] = biological target: Serine/threonine-protein kinase DCLK1 (Homo sapiens, UniProt O15075);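 note: affinity for DCLK1 (listed as DCAMKL1) measured as one member of a kinome-wide kinase profiling panel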
[11] = biological target: ALK tyrosine kinase receptor (Homo sapiens, UniProt Q9UM73);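 note: ALK tested as one member of a kinase panel screen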
[12] = biological target: Proto-oncogene tyrosine-protein kinase receptor Ret (Homo sapiens, UniProt P07949);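 note: measured within a kinome-wide profiling panel, RET as the panel member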
[13] = biological target: Tyrosine-protein kinase receptor TYRO3 (Homo sapiens, UniProt Q06418);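 note: TYRO3 value obtained as one member of a kinome-wide profiling panel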
[14] = biological target: Hepatocyte growth factor receptor (Homo sapiens, UniProt P08581);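 note: kinase panel profiling across the kinome, with MET as the panel member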
[15] = biological target: Dual specificity tyrosine-phosphorylation-regulated kinase 1B (Homo sapiens, UniProt Q9Y463); assay: Navigating the Kinome. Panel member name: DYRK1B
[16] = biological target: Leucine-rich repeat serine/threonine-protein kinase 2 (Homo sapiens, UniProt Q5S007);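 note: value from a broad kinome-wide panel profiling study in which LRRK2 was one of the kinases tested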
[17] = biological target: Cyclin-dependent kinase 8 (Homo sapiens, UniProt P49336); assay: Navigating the Kinome. Panel member name: CDK8
[18] = biological target: Dual specificity protein kinase CLK4 (Homo sapiens, UniProt Q9HAZ1)
[19] = biological target: Macrophage-stimulating protein receptor (Homo sapiens, UniProt Q04912); assay: Navigating the Kinome. Panel member name: MST1R
[20] = biological target: Dual specificity tyrosine-phosphorylation-regulated kinase 1A (Homo sapiens, UniProt Q13627);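 note: measured against DYRK1A as one member of a broad kinome profiling panel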
[21] = biological target: Leukocyte tyrosine kinase receptor (Homo sapiens, UniProt P29376); assay: Navigating the Kinome. Panel member name: LTK
[22] = biological target: Tyrosine-protein kinase JAK2 (Homo sapiens, UniProt O60674);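 note: JAK2 tested as one member of a kinase panel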
[23] = biological target: Tyrosine-protein kinase SYK (Homo sapiens, UniProt P43405)
[24] = biological target: Testis-specific serine/threonine-protein kinase 2 (Homo sapiens, UniProt Q96PF2);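 note: part of the Navigating the Kinome panel, target entry STK22B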
[25] = biological target: Tyrosine-protein kinase Lck (Homo sapiens, UniProt P06239);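 note: lck was assayed as one member of a kinase panel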
[26] = biological target: MAP kinase-activated protein kinase 5 (Homo sapiens, UniProt Q8IW41);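 note: measured as one member of a kinome panel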
[27] = biological target: Calcium/calmodulin-dependent protein kinase type II subunit delta (Homo sapiens, UniProt Q13557)
[28] = biological target: T2, Tyrosine-protein kinase JAK3 (Homo sapiens, UniProt P52333)
T2 sequence (P52333 whole entry): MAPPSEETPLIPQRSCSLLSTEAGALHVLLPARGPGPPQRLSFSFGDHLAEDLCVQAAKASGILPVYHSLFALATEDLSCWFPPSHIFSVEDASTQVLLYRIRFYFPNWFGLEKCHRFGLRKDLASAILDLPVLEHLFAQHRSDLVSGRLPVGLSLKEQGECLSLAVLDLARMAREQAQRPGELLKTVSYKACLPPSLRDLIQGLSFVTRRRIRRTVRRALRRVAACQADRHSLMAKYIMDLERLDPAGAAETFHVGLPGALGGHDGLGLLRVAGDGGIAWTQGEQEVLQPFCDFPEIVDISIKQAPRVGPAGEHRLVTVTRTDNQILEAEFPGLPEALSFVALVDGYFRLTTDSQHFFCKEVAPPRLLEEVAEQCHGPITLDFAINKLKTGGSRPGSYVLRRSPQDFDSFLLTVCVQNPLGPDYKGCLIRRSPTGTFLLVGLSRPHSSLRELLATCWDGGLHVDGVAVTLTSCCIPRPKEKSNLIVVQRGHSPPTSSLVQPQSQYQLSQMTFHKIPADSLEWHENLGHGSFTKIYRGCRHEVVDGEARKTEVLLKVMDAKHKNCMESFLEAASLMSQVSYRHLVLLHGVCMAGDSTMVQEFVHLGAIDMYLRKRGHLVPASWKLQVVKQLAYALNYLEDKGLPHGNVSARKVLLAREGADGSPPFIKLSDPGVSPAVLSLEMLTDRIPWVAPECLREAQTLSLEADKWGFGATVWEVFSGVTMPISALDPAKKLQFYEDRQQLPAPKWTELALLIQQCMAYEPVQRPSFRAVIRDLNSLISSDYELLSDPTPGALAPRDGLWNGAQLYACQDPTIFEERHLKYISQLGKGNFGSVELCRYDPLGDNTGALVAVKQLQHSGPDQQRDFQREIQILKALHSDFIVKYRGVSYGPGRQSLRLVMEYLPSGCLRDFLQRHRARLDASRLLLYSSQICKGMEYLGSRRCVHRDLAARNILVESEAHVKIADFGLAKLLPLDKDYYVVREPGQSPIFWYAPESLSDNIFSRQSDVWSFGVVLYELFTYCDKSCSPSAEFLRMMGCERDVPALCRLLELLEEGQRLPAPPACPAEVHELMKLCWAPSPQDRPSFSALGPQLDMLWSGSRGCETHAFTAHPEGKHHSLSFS

[29] = biological target: Tyrosine-protein kinase Lyn (Homo sapiens, UniProt P07948);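 note: lyn as one member of a kinase panel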
[30] = biological target: Mitogen-activated protein kinase 9 (Homo sapiens, UniProt P45984);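 note: value from a kinome panel profiling assay, MAPK9 panel entry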
[31] = biological target: T3, Tyrosine-protein kinase ITK/TSK (Homo sapiens, UniProt Q08881);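 note: affinity for ITK measured as one member of a broad kinase panel profiling binding across the kinome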
T3 sequence (Q08881 whole entry): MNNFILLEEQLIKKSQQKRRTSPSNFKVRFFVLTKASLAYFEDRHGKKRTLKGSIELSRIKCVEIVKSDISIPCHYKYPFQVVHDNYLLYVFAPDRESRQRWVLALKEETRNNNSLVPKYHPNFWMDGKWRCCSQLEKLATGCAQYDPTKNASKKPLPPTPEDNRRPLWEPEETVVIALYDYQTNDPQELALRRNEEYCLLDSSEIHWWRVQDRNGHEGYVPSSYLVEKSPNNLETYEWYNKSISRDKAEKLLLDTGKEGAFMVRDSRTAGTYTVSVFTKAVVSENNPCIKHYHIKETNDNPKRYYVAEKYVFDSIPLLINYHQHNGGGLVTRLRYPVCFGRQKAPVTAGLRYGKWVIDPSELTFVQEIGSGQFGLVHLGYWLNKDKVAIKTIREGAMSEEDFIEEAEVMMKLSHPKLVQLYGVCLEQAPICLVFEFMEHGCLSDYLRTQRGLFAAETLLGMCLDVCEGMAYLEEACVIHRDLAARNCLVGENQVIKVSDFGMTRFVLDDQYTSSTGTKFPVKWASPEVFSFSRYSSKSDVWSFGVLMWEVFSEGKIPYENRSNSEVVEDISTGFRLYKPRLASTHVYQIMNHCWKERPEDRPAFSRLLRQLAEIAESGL

[32] = biological target: Testis-specific serine/threonine-protein kinase 1 (Homo sapiens, UniProt Q9BXA7)
[33] = biological target: Mitogen-activated protein kinase 13 (Homo sapiens, UniProt O15264)
[34] = biological target: Tyrosine-protein kinase Srms (Homo sapiens, UniProt Q9H3Y6);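 note: SRMS measured as one member of a kinome-wide kinase profiling panel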
[35] = biological target: Receptor tyrosine-protein kinase erbB-2 (Homo sapiens, UniProt P04626); assay: Navigating the Kinome. Panel member name: ERBB2
[36] = biological target: Mitogen-activated protein kinase 1 (Homo sapiens, UniProt P28482)
[37] = biological target: Interleukin-1 receptor-associated kinase 1 (Homo sapiens, UniProt P51617);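 note: IRAK1 tested as one member of a kinome panel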
Aurora kinase B = Aurora kinase B (Homo sapiens, UniProt Q96GD4)
[38] = biological target: Tyrosine-protein kinase Fer (Homo sapiens, UniProt P16591);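 note: FER tested as one member of a kinome panel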

Sequence of Dual specificity protein kinase CLK4 (Q9HAZ1 whole entry): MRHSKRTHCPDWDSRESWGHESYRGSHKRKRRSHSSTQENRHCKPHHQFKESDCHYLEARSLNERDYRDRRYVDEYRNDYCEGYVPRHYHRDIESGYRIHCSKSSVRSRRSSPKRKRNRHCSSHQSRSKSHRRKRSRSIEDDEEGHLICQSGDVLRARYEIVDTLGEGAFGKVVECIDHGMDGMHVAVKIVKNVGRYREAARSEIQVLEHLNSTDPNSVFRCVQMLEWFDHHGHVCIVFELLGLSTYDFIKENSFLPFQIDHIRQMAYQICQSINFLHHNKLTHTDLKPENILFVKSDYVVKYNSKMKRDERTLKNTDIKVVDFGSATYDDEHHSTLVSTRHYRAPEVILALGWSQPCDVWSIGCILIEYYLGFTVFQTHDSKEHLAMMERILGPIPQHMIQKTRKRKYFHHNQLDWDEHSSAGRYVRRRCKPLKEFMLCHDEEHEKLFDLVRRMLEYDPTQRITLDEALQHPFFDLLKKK
Sequence of Serine/threonine-protein kinase pim-2 (Q9P1W9 whole entry): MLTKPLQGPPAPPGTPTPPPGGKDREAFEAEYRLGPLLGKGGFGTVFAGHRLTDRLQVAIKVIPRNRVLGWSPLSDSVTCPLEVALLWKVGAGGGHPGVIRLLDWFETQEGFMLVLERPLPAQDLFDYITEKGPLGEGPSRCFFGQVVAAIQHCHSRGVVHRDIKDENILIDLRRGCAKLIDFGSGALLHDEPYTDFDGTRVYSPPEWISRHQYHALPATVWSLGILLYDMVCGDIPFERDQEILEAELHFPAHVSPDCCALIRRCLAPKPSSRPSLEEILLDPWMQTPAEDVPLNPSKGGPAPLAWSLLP
Sequence of Lymphokine-activated killer T-cell-originated protein kinase (Q96KB5 whole entry): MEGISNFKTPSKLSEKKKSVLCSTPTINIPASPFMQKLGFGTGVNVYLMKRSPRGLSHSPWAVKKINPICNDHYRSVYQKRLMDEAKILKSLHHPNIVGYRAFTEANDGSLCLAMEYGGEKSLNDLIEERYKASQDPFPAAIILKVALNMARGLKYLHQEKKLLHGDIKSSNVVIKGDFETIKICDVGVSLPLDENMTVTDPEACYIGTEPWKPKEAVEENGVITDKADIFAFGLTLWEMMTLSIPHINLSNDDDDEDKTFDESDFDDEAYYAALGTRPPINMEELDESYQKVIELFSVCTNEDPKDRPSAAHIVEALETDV
Sequence of Hepatocyte growth factor receptor (P08581 whole entry): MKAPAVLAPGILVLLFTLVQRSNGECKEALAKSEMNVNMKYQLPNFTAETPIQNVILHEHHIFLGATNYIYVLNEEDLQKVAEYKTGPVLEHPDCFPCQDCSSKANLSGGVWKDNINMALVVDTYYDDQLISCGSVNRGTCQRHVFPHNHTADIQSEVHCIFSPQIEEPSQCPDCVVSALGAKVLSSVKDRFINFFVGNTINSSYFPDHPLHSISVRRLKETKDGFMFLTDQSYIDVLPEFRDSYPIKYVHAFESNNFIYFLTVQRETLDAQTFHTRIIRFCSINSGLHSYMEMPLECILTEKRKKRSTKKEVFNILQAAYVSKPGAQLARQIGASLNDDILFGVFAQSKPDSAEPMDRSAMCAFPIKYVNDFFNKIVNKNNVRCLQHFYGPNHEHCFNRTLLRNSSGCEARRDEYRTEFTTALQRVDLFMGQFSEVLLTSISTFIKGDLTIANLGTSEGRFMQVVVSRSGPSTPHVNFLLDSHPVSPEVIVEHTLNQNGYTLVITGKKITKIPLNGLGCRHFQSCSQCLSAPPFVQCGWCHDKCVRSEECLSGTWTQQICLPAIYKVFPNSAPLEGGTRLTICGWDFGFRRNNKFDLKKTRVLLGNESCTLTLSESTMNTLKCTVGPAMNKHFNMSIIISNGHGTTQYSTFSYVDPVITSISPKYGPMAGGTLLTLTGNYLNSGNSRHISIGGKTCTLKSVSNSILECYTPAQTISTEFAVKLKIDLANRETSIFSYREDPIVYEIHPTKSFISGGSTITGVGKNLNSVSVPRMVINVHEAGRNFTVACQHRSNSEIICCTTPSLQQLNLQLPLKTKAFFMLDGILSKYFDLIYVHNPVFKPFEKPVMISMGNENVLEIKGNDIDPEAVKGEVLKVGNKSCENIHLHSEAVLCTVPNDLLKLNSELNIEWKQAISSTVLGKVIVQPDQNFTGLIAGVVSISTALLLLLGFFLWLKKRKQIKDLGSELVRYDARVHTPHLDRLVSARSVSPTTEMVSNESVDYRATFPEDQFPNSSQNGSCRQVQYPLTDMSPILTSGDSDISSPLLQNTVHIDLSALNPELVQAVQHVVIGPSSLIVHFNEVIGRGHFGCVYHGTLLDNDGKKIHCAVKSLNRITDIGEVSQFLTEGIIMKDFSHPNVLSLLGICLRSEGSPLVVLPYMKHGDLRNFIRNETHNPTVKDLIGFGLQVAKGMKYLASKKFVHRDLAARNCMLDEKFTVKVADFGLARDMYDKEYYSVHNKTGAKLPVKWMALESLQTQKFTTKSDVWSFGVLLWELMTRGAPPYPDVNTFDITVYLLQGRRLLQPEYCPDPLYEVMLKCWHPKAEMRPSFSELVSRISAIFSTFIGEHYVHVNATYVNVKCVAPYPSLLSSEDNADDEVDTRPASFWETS
Sequence of Tyrosine-protein kinase Srms (Q9H3Y6 whole entry): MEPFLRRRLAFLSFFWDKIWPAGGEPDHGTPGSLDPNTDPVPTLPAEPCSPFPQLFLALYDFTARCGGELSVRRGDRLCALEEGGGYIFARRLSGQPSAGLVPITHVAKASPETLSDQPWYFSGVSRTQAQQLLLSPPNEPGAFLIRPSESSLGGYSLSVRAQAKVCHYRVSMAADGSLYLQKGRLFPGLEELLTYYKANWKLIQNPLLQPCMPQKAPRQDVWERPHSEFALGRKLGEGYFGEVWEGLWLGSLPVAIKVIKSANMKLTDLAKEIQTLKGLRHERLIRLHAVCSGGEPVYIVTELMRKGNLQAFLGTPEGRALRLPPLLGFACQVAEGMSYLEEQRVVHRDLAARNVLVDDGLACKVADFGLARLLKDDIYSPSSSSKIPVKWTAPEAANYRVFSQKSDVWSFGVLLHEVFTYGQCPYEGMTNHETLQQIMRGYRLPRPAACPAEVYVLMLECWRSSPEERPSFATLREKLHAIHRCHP
Sequence of Tyrosine-protein kinase Lyn (P07948 whole entry): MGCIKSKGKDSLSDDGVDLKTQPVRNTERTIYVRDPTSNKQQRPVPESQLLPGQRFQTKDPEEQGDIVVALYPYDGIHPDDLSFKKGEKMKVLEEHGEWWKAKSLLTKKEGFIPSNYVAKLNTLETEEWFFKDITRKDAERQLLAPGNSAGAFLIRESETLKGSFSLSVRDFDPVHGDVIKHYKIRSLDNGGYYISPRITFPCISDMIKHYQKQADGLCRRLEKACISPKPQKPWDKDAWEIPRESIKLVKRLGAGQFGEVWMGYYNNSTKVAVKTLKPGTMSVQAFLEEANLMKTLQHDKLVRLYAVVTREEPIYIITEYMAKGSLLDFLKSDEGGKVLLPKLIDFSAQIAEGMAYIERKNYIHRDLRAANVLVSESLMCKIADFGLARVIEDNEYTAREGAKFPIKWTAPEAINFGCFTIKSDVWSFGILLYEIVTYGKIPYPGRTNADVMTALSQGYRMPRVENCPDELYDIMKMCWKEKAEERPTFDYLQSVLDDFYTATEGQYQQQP
Sequence of Interleukin-1 receptor-associated kinase 1 (P51617 whole entry): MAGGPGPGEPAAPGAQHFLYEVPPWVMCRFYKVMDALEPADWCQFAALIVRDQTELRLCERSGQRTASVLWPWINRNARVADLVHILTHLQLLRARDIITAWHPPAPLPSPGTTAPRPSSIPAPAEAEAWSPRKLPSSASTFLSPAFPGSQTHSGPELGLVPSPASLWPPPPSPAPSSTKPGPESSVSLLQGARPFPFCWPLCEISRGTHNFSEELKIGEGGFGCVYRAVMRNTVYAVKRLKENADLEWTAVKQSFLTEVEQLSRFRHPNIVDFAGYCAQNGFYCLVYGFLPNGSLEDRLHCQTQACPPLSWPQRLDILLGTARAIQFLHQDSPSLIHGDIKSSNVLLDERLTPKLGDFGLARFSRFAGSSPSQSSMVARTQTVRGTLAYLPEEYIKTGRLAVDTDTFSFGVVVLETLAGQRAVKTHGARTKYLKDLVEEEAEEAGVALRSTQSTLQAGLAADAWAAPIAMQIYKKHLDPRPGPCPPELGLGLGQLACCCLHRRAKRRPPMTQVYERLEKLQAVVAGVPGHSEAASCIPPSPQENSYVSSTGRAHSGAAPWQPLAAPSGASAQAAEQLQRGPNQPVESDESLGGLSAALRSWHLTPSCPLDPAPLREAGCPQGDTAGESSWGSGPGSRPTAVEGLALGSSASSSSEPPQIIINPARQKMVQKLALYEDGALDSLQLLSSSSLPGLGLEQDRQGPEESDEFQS
Sequence of Calcium/calmodulin-dependent protein kinase type II subunit delta (Q13557 whole entry): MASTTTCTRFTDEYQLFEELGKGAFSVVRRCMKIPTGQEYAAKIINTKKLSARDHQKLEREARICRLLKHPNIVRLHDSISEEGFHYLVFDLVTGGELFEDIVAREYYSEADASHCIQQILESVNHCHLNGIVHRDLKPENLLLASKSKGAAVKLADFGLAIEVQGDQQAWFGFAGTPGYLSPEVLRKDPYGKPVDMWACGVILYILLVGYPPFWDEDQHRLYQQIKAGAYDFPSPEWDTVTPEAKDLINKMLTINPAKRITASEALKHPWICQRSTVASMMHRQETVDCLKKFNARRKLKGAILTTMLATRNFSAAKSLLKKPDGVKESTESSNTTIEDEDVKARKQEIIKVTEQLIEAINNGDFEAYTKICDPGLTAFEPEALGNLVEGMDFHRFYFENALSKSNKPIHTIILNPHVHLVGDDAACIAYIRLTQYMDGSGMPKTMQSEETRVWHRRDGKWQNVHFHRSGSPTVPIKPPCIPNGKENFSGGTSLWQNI

With `O=c1[nH]c2ccccc2n2cc(-c3ccc(Cl)cc3)cc12` as the compound, how does the Ki [1] read?
The Ki was 3160 nM (active).

What about the Ki [2] of the same compound?
The Ki was > 100000 nM (inactive).

And the Ki [3]?
The Ki was 10000 nM (active).

And the Ki [4]?
Its Ki is 3160 nM (active).

And the Ki [5]?
Its Ki is 1580 nM (active).

What does the source list for `CN(c1ccc2[nH]ncc2c1)c1c(NCc2ccc(Cl)cc2Cl)c(=O)c1=O`?
Ki [6]: 5010 nM (active); Ki [7]: 6310 nM (active); Ki [8]: 10000 nM (active); Ki [9]: 1260 nM (active); Ki [10]: 10000 nM (active); Ki [4]: 10000 nM (active)

With `O=c1[nH]nc2c(-c3ccccc3)cccn12` as the compound, how does the Ki [11] read?
The Ki was 100000 nM (active).

What about the Ki [12] of the same compound?
Its Ki is 50100 nM (active).

What about the Ki [13] of the same compound?
Its Ki is 63100 nM (active).

And the Ki [14]?
The Ki was 79400 nM (active).

And the Ki [15]?
The Ki was 39800 nM (active).

What about the Ki [16] of the same compound?
Its Ki is 39800 nM (active).

What about the Ki [17] of the same compound?
Its Ki is 63100 nM (active).

What about the Ki [18] of the same compound?
The Ki was 10000 nM (active).

What about the Ki [19] of the same compound?
Its Ki is 63100 nM (active).

What about the Ki [20] of the same compound?
Its Ki is 39800 nM (active).

What about the Ki [21] of the same compound?
The Ki was 39800 nM (active).

How did the Ki [22] turn out when `COc1ccc2c(c1)C(=Cc1cnc[nH]1)C(=O)N2` was run?
The Ki was 501 nM (active).

What about the Ki [23] of the same compound?
The Ki was > 1580 nM (inactive).

What about the Ki [24] of the same compound?
The Ki was > 1580 nM (inactive).

And the Ki [25]?
The Ki was 1580 nM (active).

What about the Ki [26] of the same compound?
Its Ki is > 1580 nM (inactive).

And the Ki [27]?
The Ki was 1580 nM (active).

And the Ki [28]?
The Ki was 501 nM (active).

What about the Ki [29] of the same compound?
Its Ki is > 1580 nM (inactive).

What about the Ki [30] of the same compound?
The Ki was 1580 nM (active).

And the Ki [31]?
The Ki was > 1580 nM (inactive).

What about the Ki [32] of the same compound?
Its Ki is > 1580 nM (inactive).

What about the Ki [33] of the same compound?
Its Ki is > 7940 nM (inactive).

And the Ki [34]?
The Ki was > 1580 nM (inactive).

What about the Ki [35] of the same compound?
The Ki was > 1580 nM (inactive).

What about the Ki [36] of the same compound?
The Ki was 501 nM (active).

And the Ki [37]?
Its Ki is 1580 nM (active).

And the Ki (Aurora kinase B)?
The Ki was 251 nM (active).

What about the Ki [38] of the same compound?
Its Ki is > 1580 nM (inactive).

And the Ki [9]?
The Ki was > 1580 nM (inactive).

And the Ki [18]?
The Ki was 251 nM (active).
